Measured values from patent US20130102629A1, “ANALOGUES FOR THE TREATMENT OR PREVENTION OF FLAVIVIRUS INFECTIONS” (VERTEX PHARMACEUTICALS INCORPORATED, priority 2010, published 2013).
pEC50: −log10 of the molar value.

Tests used:
[1] = system: HCV (1b) replicon, Huh-ET cells; experiment: Cell-based luciferase reporter HCV (1b) RNA replication assay; conditions: Hepatitis C virus; for pEC50: HCV genotype 1b replicon, read-out: EC50_1b; for IC50: sub-genomic replicon 1b cell line
Description: Cell-Based Luciferase Reporter HCV (Ib) RNA Replication Assay Cell Culture
Replicon cell lines Huh-5.2 are derived from the Huh-7 hepatocarcinoma cell line are maintained in culture as generally described in Krieger, N; Lohmann, V; Bartenschlager, R. Enhancement of hepatitis C virus RNA replication by cell culture-adaptive mutations. J. Virol. 2001, 75, 4614-4624. The Huh-5.2 cells contain the highly cell culture-adapted replicon I389luc-ubi-neo/NS3-3′/5.1 construct that carries, in addition to the neomycin gene, an integrated copy to the firefly luciferase gene (Krieger, N; Lohmann, V; Bartenschlager, R. Enhancement of hepatitis C virus RNA replication by cell culture-adaptive mutations. J. Virol. 2001, 75, 4614-4624). This cell line allows measurement of HCV RNA replication and translation by measuring luciferase activity. It has been previously shown that the luciferase activity tightly follows the replicon RNA level in these cells (Krieger, N; Lohmann, V; Bartenschlager, R. Enhancement of hepatitis C virus RNA replication by cell culture-adaptive mutations. J. Virol. 2001, 75, 4614-4624). The Huh-ET cell line has the same features as those mentioned for Huh-5.2 cell line, except that ET cells are more robust and contain an adaptative mutation in the HCV NS4B gene instead of NS5A. Both cell lines are maintained in cultures at a sub-confluent level (<85%) as the level of replicon RNA is highest in actively proliferating cells. The culture media used for cell passaging consist of DMEM (Gibco BRL Laboratories, Mississauga, ON, Canada) supplemented with 10% foetal bovine serum with 1% penicilin/streptomycin, 1% glutamine, 1% sodium pyruvate, 1% non-essential amino acids, and 180 μg/ml of G418 final concentration. Cells are incubated at 37° C., in an atmosphere of 5% CO2 and passaged twice a week to maintain sub-confluence.
Approximately 3000 viable Huh-ET cells (100 μl) are plated per well in a white opaque 96-well microtiter plate. The cell culture media used for the assay is the same as described above except that it contains no G418 and no phenol red. After an incubation period of 3-4 hours at 37° C. in a 5% CO2 incubator, compounds (100 μl) are added at various concentrations. Cells are then further incubated for 4 days at 37° C. in a 5% CO2 incubator. Thereafter, the culture media is removed and cells are lysed by the addition of 95 μL of the luciferase buffer (luciferin substrate in buffered detergent). Cell lysates are incubated at room temperature and protected from direct light for at least 10 minutes. Plates are read for luciferase counts using a luminometer (Wallac MicroBeta Trilux, Perkin Elmer™, MA, USA).
Curves are fitted to data points using nonlinear regression analysis, and IC50s are interpolated from the resulting curve using GraphPad Prism software, version 2.0 (GraphPad Software Inc., San Diego, Calif., USA).

[2] = system: sub-genomic HCV replicon of genotype 1a (cell line W11.8); experiment: Activity determination using the ELISA and the sub-genomic replicon 1a cell line; format: cell-based; conditions: Hepatitis C virus
Description: Activity Determination Using the ELISA and the Sub-Genomic Replicon 1a Cell Line
The cell line W11.8 containing the sub-genomic HCV replicon of genotype 1a is used to determine the potency of the drugs. The RNA replication in presence of different drug concentrations is indirectly measured in this cell line by the level of NS5A protein content upon drug treatment for four days. It is shown that the level of the NS5A protein correlates well with the level of HCV RNA in the replicon cell line. Cells are split twice a week in order to keep the confluence state below 85% of the culture flask surface area. The culture media used for cell passaging consists of DMEM-10% foetal bovine serum with 100 UI/mL penicillin, 100 μg/mL streptomycin, 2 mM glutamine, 1 mM sodium pyruvate, non-essential amino acids (1×) and 600 μg/mL of G418 final concentrations. Monolayer of the W11.8 cells is trypsinized and cells are counted. […] Then, substrate solution (100 μl, SuperSignal ELISA Pico Chemiluminescent Substrate, Fisher Cat. No. 37069) is added in each well and plates are incubated 60 minutes at room temperature prior to reading the luminescence (relative light units) on the Analyst HT plate reader. The percentage of inhibition at each drug concentration tested (in duplicate) is calculated.

COC(=O)N[C@H](C(=O)N1C[C@@H](C)C[C@H]1c1ncc(-c2ccc(-c3ccc(-c4ccc5nc([C@@H]6C[C@H](C)CN6C(=O)[C@@H](NC(=O)OC)C(C)C)oc5c4)cc3)cc2)[nH]1)C(C)C [Compound 1]
pEC50 [1]: ≥ 8.30

COC(=O)N[C@H](C(=O)N1C[C@@H](C)C[C@H]1c1ncc(-c2ccc(-c3ccc(-c4ccc5sc([C@@H]6C[C@H](C)CN6C(=O)[C@@H](NC(=O)OC)C(C)C)nc5c4)cc3)cc2)[nH]1)C(C)C [Compound 3]
pEC50 [1]: ≥ 8.30

COC(=O)N[C@H](C(=O)N1C(c2nc3cc(-c4ccc(-c5ccc(-c6c[nH]c([C@@H]7CC[C@H](C)N7C(=O)[C@@H](NC(=O)OC)C(C)C)n6)cc5)cc4)cnc3[nH]2)CC[C@@H]1C)C(C)C (stereo partly drawn) [Compound 6]
pEC50 [1]: ≥ 8.30

COC(=O)N[C@H](C(=O)N1C[C@@H](C)C[C@H]1c1nc(-c2ccc(-c3ccc(-c4cnc5[nH]c([C@@H]6C[C@H](C)CN6C(=O)[C@@H](NC(=O)OC)C(C)C)nc5c4)cc3)cc2)c[nH]1)C(C)C [Compound 16, Methyl N-[(1S)-1-[(2S,4S)-2-[4-[4-[4-[2-[(2S,4S)-1-[(2S)-2-(methoxycarbonylamino)-3-methyl-butanoyl]-4-methyl-pyrrolidin-2-yl]-3H-imidazo[4,5-b]pyridin-6-yl]phenyl]phenyl]-1H-imidazol-2-yl]-4-methyl-pyrrolidine-1-carbonyl]-2-methyl-propyl]carbamate]
pEC50 [1]: ≥ 8.30
IC50 [1]: 0.01 nM
IC50 [2]: 0.01 nM

COC(=O)N[C@H](C(=O)N1[C@@H](C)CC[C@H]1c1nc(-c2ccc(-c3ccc(-c4cnc5[nH]c([C@@H]6CC[C@H](C)N6C(=O)[C@@H](NC(=O)OC)C(C)C)nc5c4)cc3)cc2)c[nH]1)C(C)C [Compound 4]
pEC50 [1]: ≥ 8.30
IC50 [1]: 0.07 nM
IC50 [2]: 0.025 nM

COC(=O)N[C@H](C(=O)N1C[C@@H](C)C[C@H]1c1cc2cc(-c3ccc(-c4ccc(-c5cnc([C@@H]6C[C@H](C)CN6C(=O)[C@@H](NC(=O)OC)C(C)C)[nH]5)cc4)cc3)ccc2[nH]1)C(C)C [Compound 5]
pEC50 [1]: ≥ 8.30

COC(=O)N[C@H](C(=O)N1C[C@@H](C)C[C@H]1c1nc2ccc(-c3cc4sc(-c5c[nH]c([C@@H]6C[C@H](C)CN6C(=O)[C@@H](NC(=O)OC)C(C)C)n5)cc4s3)cn2n1)C(C)C [Compound 15]
pEC50 [1]: ≥ 8.30

COC(=O)N[C@H](C(=O)N1C[C@@H](C)C[C@H]1c1cc2ccc(-c3ccc(-c4ccc(-c5cnc([C@@H]6C[C@H](C)CN6C(=O)[C@@H](NC(=O)OC)C(C)C)[nH]5)cc4)cc3)cc2[nH]1)C(C)C [Compound 2]
pEC50 [1]: ≥ 8.30
